# Results: US9956199B2, “Chromane-like cyclic prenylflavonoids for the medical intervention in neurological disorders” (priority 2011, dated 2018)
# Entries after “also recorded” stand apart in the source; their conditions may differ.
# Tested on: MEF cells
# Experiment: neurite length and branching in MEF cultures
# Type: cell-based, mouse
# Conditions: 10 μM and 100 μM, 7 days
# Method: Mouse embryonic day 16 forebrain cells were prepared and treated as described in Example 17.
# The morphology of MEF cells after a 7 day treatment with retinoic acid/valproic acid or with compound 1a (ENDF1) is illustrated in FIG. 4. Cells were fixed and stained with DCX and Map2ab antibodies as described in Example 18. Three independent experiments were performed and evaluated. Data acquisition was done by using the software Volocity 5.3.1 for measurement and photographical documentation. The following parameters were analyzed: polarity, process, number of branches, number and length of sprouts, neurite-length and growth cone morphology.
# For quantitative analysis of neurite length, neurons with long neurites were taken into consideration. […] For quantitative analysis of neurite branching, the branch density (number of branches per 100 μm of neurite length) was counted. For analysis, the DCX staining with DMEM-KO medium was used, since DCX, in contrast to Map2ab, is localized throughout the neurites.
compound,measurement,setting,value
"COc1cc2c(c(O)c1C(=O)/C=C/c1ccc(O)cc1)C=CC(C)(C)O2 [Compound 1a, (E)-1-(5-hydroxy-7-methoxy-2,2-dimethyl-2H-chromen-6-yl)-3-(4-hydroxyphenyl)prop-2-en-1-one]",neurite branching/sprouting (branches per 100 μm of neurite length),"DMEM-KO, FIG. 4J",high density of branches/sprouts; also recorded: strongly increases neurite length and neurite branching; also recorded: dramatic increase in branching/sprouting
same,neurite length (DCX positive neurite profiles),"compared to control and RA+VPA, FIG. 4I",significant increase in neurite length; also recorded: strongly increases neurite length and neurite branching; also recorded: much longer neurites
